These results are taken from patent EP1087941B9, “THIOLESTERS AND USES THEREOF” (THE UNITED STATES OF AMERICA, as represented by THE …, priority 1998, dated 1999).

In data set [1] the target is T1, Sp1 (Homo sapiens, UniProt P08047).
T1 construct: K562 cell nuclear extracts, and antibodies for Sp1 (Spl[PEP2]-G); host or cells: K562 cell nuclear extracts
Nature of the data set: Sp1 super gel shift EMSA with K562 cell nuclear extracts (specificity). To be noted: specificity for CCHC versus CCHH zinc finger. Type of data set: biochemical. Here is the method: To determine if compound 44, 45 or 47 binding activity was specific for CCHC zinc fingers, a super gel shift EMSA after treatment of K562 cell nuclear extracts with the compounds was performed. This was followed by super shifting with Spl-specific antibody. Spl was chosen because it is a cellular transcription factor that contains three copies of a classical type CCHH zinc finger motif that are required for Sp1 binding to its DNA target. […] Super gel shifting to determine the specificity of zinc finger reactive compounds was carried out using an Sp1 consensus oligomer (Stratagene, La Jolla, CA), K562 cell nuclear extracts, and antibodies for Sp1 (Spl[PEP2]-G) (extracts and Spl Abs from Santa Cruz Biotechnology, Inc., Santa Cruz, CA). The binding reactions of oligonucleotides with K562 nuclear extract, as well as electrophoretic conditions were carried out as described in the Gelshift Buffer Kit, Stratagene, La Jolla, CA.
For orientation: In EMSA bound probe runs differently from free probe, usually more slowly.

The test system of data set [2] is virus attachment. Kind of data set: Cell-based p24 attachment assay. To be noted: for IC50: Table 7, high dose test of 100 µM, read-out: Attachment I50. How it is done: The cell-based p24 attachment assay was performed as described in Rice (1995) Science 270:1194-1197. Viral inactivation assays were carried out as described in Rice (1995) Science 270:1194-1197, and Turpin (1997) supra, with minor modifications. Briefly, MAGI-CCR-5 cells were plated (4 x 10^4 cells per well) in flat bottomed 2-cm well plates for 24 h, after which the culture media was removed and compound-treated virus was added. The virus used was obtained by transient transfection of pNL4-3 into HeLa cells yielding the replication competent NL4-3 virus. Virus containing supernatants were treated for 2 h at 37°C after which residual compound was removed by centrifugation (18,000 x g, 1h, 4°C). Virus pellets were resuspended and placed on the MAGI-CCR-5 monolayers and cultured for 48 h. Monolayers were fixed and stained with X-gal solution and blue cells counted.

Data set [3] deals with CEM-SS cells. Kind of data set: cells. Type of data set: cell-based. From the text: One exemplary means to determine antiviral activity is with CEM-SS cells and virus (e.g., HIV-1RF) (MOI = 0.01) using the XTT (2,3-bis[2-methoxy- 4-nitro-5-sulfophenyl] -5- [(phenylamino)carbonyl]-2H-tetrazolium hydroxide) cytoprotection assay, as described by Rice (1993) PNAS 90:9721-9724, and Rice (1997) Antimicrob. Agents Chemother. 41:419-426. Briefly, cells are infected with HIV-1RF (or other virus to be tested) in the presence of various dilutions of test compounds (thiolesters and controls). The cultures are incubated for seven days. During this time control cultures without protective compounds (i.e., compounds with anti-viral activity) replicate virus, induce syncytia, and result in about 90% cell death. The cell death is measured by XTT dye reduction. XTT is a soluble tetrazolimn dye that measures mitochondrial energy output, similar to MTT. Positive controls using dextran sulfate (an attachment inhibitor) or 3'-Azido -2'-3'-dideoxythymidine, AZT (a reverse transcriptase inhibitor) are added to each assay. Individual assays are done in duplicate using a sister plate method.
Effective antiviral concentrations providing 50% cytoprotection (EC50), and cellular growth inhibitory concentrations causing 50% cytotoxicity (IC50) are calculated.

Data set [4] has as its target T2, recombinant HIV-1 protease (Human immunodeficiency virus type 1 group M subtype B, UniProt P03366).
T2 construct: Substrate cleavage of recombinant HIV-1 protease
Kind of data set: HPLC-based protease substrate cleavage assay. In kind it is biochemical. The settings on record: for IC50: Table 7, high dose test of 100 µM, read-out: Protease I50. Here is the method: The 5-bromovaleroyl thioester, compound 44, and two 5-pyridiniovaleroyl thioesters, compounds 45 and 47, were analyzed in mechanistic and target-based assays. […] Assays for activity against HIV-1 reverse transcriptase rAdT (template/primer) and rCdG (template/primer) using recombinant HIV-1 reverse transcriptase (S. Hughes, ABL Basic Research NCI-FCRDC, Frederick MD) were performed as described by Rice (1997) supra. Substrate cleavage of recombinant HIV-1 protease in the presence of test compounds using an HPLC-based methodology with the artificial substrate Ala-Ser-Glu-Asn-Try- Pro-Ile-Val-amide (Multiple Peptide Systems, San Diego CA) was performed as described by Rice (1997) supra. The ability of recombinant HIV-1 integrase (S. Hughes, ABL Basic Research NCI-FCRDC, Frederick MD) to carry out 3' processing and strand transfer activities in the presence of test compounds was performed as described by Buckheit (1994) AIDS Res. Hum. Retroviruses 10:1497-1506, and Turpin (1998) Antimicrob. Agents Chemother. 42: 487-494.

The mark [5] stands for this setting: Homo sapiens, CEM-SS, Table 5, 50% cytotoxicity, read-out: Antiviral Activity IC50%.
Where [6] appears, read: Homo sapiens, CEM-SS, Table 6, 50% cytotoxicity, read-out: Antiviral Activity IC50.

Molecules are shown by their SMILES. Read-outs that look alike come from different tables or passages of the source.

T1 sequence (P08047 whole entry): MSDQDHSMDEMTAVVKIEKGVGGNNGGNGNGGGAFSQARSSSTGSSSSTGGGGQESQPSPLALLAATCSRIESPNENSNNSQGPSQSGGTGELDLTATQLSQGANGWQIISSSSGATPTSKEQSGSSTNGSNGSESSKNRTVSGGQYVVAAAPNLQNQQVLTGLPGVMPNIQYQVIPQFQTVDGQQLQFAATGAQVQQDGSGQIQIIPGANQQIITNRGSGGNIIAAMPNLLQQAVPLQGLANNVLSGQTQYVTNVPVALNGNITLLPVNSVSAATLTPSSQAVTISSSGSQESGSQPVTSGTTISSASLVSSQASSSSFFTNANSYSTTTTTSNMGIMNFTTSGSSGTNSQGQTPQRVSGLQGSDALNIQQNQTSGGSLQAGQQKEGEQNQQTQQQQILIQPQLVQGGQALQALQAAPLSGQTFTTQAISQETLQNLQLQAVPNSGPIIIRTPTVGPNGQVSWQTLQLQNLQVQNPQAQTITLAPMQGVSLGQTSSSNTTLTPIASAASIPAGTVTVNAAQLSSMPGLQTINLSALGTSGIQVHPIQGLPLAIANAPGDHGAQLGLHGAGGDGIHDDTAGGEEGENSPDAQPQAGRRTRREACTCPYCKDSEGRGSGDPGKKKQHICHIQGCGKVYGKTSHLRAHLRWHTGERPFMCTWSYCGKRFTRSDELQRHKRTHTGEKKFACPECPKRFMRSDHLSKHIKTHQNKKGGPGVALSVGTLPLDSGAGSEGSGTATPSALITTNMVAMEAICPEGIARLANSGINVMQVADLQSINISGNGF

In the case of `CC(=O)NS(=O)(=O)c1ccc(NC(=O)c2ccccc2SC(=O)CCCCBr)cc1` [Compound 44, N-[2-(5-bromovaleroylthio)benzoyl]sulfacetamide], the “effect on super shifting of Sp1 bound to its DNA target” value (shortened to “effect on super shifting of Sp1 bound”) in data set [1] is on record as “failed to alter the pattern of super shifting”. Further, the “inhibition of virus attachment” value in data set [2] is on record as “did not inhibit”. Besides, the IC50 is more than 100 µM in data set [2], 184 µM in data set [3] (setting [5]), 184 µM in data set [3] (setting [6]) and more than 100 µM in data set [4]. Also, the “inhibition of HIV-1 protease enzyme activity” value in data set [4] is listed as “did not inhibit”.
`CC(=O)NS(=O)(=O)c1ccc(NC(=O)c2ccccc2SC(=O)CCCC[n+]2ccccc2)cc1` [Compound 45, N-[2-(5-pyridinio-valeroylthio)benzoyl]sulfacetamide bromide]: in data set [1], the “effect on super shifting of Sp1 bound” value is “failed to alter the pattern of super shifting”. The “inhibition of virus attachment” value in data set [2] is reported as “did not inhibit”. Moreover, the IC50 was more than 100 µM in data set [2]; more than 316 µM in data set [3] (setting [5]); more than 316 µM in data set [3] (setting [6]); more than 316 µM in data set [3] (Table 10, 50% cytotoxicity, read-out: Antiviral Activity IC50%); more than 100 µM in data set [4]. Also, in data set [3] (high test dose of 316 µM), the “toxicity at the high test dose” value is “no toxicity”. Moreover, the “inhibition of HIV-1 protease enzyme activity” value in data set [4] was “did not inhibit”.
On to `O=C(CCCC[n+]1ccccc1)Sc1ccccc1C(=O)Nc1ccc(S(=O)(=O)c2ccc([N+](=O)[O-])cc2)cc1` [Compound 47], for which the “effect on super shifting of Sp1 bound” value in data set [1] was “failed to alter the pattern of super shifting”. In data set [2], the “inhibition of virus attachment” value is given as “did not inhibit” and the IC50 is more than 100 µM. In data set [3] (Homo sapiens, CEM-SS, read-out: Antiviral Activity IC50), the IC50 was more than 316 µM. For the same compound, in data set [4], the “inhibition of HIV-1 protease enzyme activity” value is given as “did not inhibit”.
